Literature values, collected in patent US20110052727A1, “Anti Influenza Nutritional Supplements” (priority 2009, published 2011).
Where two headings read alike, the source gives them in different places.

What was measured:
[1] = tested on: influenza A/PR/8 virus
[2] = tested on: influenza A/Kumamoto/1/65 virus
[3] = tested on: influenza A/WS/33 virus
[4] = tested on: MDCD cells; details: 100 μg/ml
[5] = tested on: MDCK cells; details: up to 1 mM
[6] = tested on: influenza virus A/Udorn/317/72(H3N2); details: quercetin orally 1 mg/day for 5 consecutive days
[7] = tested on: influenza virus A/Puerto Rico/8/34 (H1N1)
[8] = tested on: influenza A/Bangkok/1/79 virus; details: selenium adequate diet, vs deficient diet still severe at day 21
[9] = tested on: influenza A Bangkok 1/79; details: Se- vs Se+ conditions; 24 hours post infection
[10] = tested on: Influenza A Virus (Strain A/Yamagata/120/86 H1N1); details: 1.5 μM; 60 min treatment
[11] = target: neuraminidase; details: read-out: concentration for reduction of half enzymatic activity (neuraminidase)
[12] = tested on: influenza A/Chile/1/83 (H1N1) virus; details: compared with ECG and EGC
[13] = tested on: MDCK cells
[14] = tested on: influenza A/Chile/1/83 (H1N1) virus; details: 500 μM
[15] = tested on: influenza A/Chile/1/83 (H1N1) virus; details: MDCK cells; read-out: 50% effective inhibition concentration (EC50)
[16] = tested on: MDCK cells; details: read-out: dose that reduced cell viability about 50% (CC50)

## O=C/C=C/c1ccccc1 [CA, trans-cinnamaldehyde]
[1]; 40 μM, treatment given 3 hours post infection
  virus yield of control (maximum inhibitory effect): 29.7%
[1]; 200 μM
  virus yield: undetectable level

## CC1(C)[C@@H](O[C@H]2O[C@H](C(=O)O)[C@@H](O)[C@H](O)[C@H]2O[C@@H]2O[C@H](C(=O)O)[C@@H](O)[C@H](O)[C@H]2O)CC[C@]2(C)[C@H]3C(=O)C=C4[C@@H]5C[C@@](C)(C(=O)O)CC[C@]5(C)CC[C@@]4(C)[C@]3(C)CC[C@@H]12 [Glycyrrhizin]
[2]; 10 mg/kg 1 day before and 1 and 4 days post infection, 10-50% lethal doses, saline controls no survivors
  survival: survived over the 21-day experimental period
[2]; 2 to 6 days after the infection
  virus titers in the lungs, times lower than control mice: more than 10 times
[2]; day 6
  viral activity in the lungs: not detected

## CCOC(=O)C1=C[C@@H](OC(CC)CC)[C@H](NC(C)=O)[C@@H](N)C1 [Oseltamivir, reference compound]
[3]; 100 μg/ml, 2 days incubation
  antiviral activity: about 58%
[3]; concentrations of less than 10 μg/ml
  antiviral activity: less than 49%
[4]
  cell viability: about 100%

## C[C@@H]1O[C@@H](Oc2c(-c3ccc(O)c(O)c3)oc3cc(O)cc(O)c3c2=O)[C@H](O)[C@H](O)[C@H]1O [Q3R, quercetin 3-rhamnoside]
[3]; 10 μg/ml, 2 days incubation
  antiviral activity: about 66%
[3]; 100 μg/ml, 2 days incubation
  antiviral activity: about 86%
[4]
  cell viability: about 100%

## NC(=O)c1c[se]c([C@@H]2O[C@H](CO)[C@@H](O)[C@H]2O)n1 [Selenazofurin, selenazofurin]
[5]
  cytotoxic effect on cells: no cytotoxic effect

## O=c1c(O)c(-c2ccc(O)c(O)c2)oc2cc(O)cc(O)c12 [quercetin, Quercetin]
[6]
  epithelial damage and leukocytic influx: significantly reduced
  superoxide radicals production levels: significantly reduced their levels
[6]; P<0.05
  lipid peroxidation (LPO) products level after supplementation (raised by 85% in influenza group vs normal control): 43%
[7]; quercetin 12.5 mg/kg via gavage for 7 days before viral challenge, 21 days monitoring
  decrease of mortality in the control group (infected and did not exercise): 22%
[7]; quercetin 12.5 mg/kg via gavage for 7 days, P<0.05
  susceptibility to infection (morbidity, mortality, symptom severity on days 5-7) associated with stressful exercise: offset the increase in susceptibility to infection

## [Se] [selenium, Selenium]
[8]
  lung pathology: began to diminish after day 6
[9]
  influenza-induced apoptosis: Se deficiency enhanced influenza-induced apoptosis

## (−)-epigallocatechin gallate [EGCG]
[10]
  inhibition of plaque forming activity: ~100%
[11]
  IC50: ~350 µM
[12]
  hemagglutination inhibition activity: most effective
[13]
  toxicity relative to derivatives: less toxic than most of its derivatives
[14]
  inhibition of viral RNA synthesis: about 80%
[15]
  EC50: 22 to 28 µM
[16]
  CC50: 275 ± 22.8 µM
